# Assay: Body weight of rats on treatment in MIA osteoarthritis study
# Type: in vivo, Sprague Dawley rats
# Conditions: oral, positive control; treatment stopped early in the study
# Description: Groups of 20 male Sprague Dawley rats were given a 2 mg intra-articular injection of MIA into the right knee on day 0. On day 18, rats were treated with a single dose of plasmalyte buffer (negative control), PLCs, PLC lysate, or human PRP by intra-articular injection into the right knee.
compound,measurement,value
C[C@@H]1C[C@H]2[C@@H]3CCC4=CC(=O)C=C[C@]4(C)[C@@]3(F)[C@@H](O)C[C@]2(C)[C@@]1(O)C(=O)CO [dexamethasone],body weight on treatment,began to lose weight

# Reference: US20230174939A1, “NOVEL ANUCLEATED CELLS AS A SOURCE FOR TREATMENT OF PLATELET RICH PLASMA DEPENDENT DISORDERS” (Stellular Bio, Inc., priority 2020, published 2023)
